Usually IC50 stands for the midpoint of a concentration-inhibition curve.

Common to all, as to assay: In Vitro Test of Activities of Jak1, Jak2, Jak3, Tyk2 Kinases
Assay [1] concerns the target Tyrosine-protein kinase JAK2 (Homo sapiens, UniProt O60674).
Assay [2] has as its target T1, Tyrosine-protein kinase JAK3 (Homo sapiens, UniProt P52333).
T1 sequence (P52333 whole entry): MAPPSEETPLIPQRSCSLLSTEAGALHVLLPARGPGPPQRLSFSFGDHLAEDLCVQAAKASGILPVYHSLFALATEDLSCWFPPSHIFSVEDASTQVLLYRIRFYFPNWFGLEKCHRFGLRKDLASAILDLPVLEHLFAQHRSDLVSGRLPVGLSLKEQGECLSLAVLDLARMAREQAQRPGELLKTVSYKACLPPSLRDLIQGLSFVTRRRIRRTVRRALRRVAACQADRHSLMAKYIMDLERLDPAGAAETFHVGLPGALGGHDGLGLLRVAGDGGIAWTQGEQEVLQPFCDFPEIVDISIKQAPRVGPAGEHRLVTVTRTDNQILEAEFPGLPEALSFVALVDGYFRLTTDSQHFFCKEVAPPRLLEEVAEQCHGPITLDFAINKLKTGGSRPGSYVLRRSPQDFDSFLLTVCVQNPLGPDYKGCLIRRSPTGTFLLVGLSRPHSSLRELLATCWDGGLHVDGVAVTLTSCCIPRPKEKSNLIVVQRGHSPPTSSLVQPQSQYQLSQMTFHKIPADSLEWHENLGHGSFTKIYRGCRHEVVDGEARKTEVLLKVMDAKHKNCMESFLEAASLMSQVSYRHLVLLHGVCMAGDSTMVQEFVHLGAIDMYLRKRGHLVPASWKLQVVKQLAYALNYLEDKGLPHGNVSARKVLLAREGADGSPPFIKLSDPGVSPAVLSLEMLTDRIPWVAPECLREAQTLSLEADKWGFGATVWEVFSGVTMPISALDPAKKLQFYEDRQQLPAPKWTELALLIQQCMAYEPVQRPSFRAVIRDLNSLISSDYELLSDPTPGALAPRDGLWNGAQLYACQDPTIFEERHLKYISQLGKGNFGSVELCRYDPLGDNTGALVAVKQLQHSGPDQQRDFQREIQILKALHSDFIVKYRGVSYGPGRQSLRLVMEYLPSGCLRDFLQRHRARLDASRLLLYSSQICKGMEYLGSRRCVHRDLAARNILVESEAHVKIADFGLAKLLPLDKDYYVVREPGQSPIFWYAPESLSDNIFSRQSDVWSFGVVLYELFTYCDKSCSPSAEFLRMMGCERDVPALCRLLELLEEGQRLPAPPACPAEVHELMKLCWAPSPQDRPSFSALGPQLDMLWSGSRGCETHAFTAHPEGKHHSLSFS

For assay [3], the target named is Non-receptor tyrosine-protein kinase TYK2 (Homo sapiens, UniProt P29597).
For assay [4], the target named is Tyrosine-protein kinase JAK1 (Homo sapiens, UniProt P23458).

Structures are written as SMILES.

Chain of Tyrosine-protein kinase JAK1 (P23458 whole entry): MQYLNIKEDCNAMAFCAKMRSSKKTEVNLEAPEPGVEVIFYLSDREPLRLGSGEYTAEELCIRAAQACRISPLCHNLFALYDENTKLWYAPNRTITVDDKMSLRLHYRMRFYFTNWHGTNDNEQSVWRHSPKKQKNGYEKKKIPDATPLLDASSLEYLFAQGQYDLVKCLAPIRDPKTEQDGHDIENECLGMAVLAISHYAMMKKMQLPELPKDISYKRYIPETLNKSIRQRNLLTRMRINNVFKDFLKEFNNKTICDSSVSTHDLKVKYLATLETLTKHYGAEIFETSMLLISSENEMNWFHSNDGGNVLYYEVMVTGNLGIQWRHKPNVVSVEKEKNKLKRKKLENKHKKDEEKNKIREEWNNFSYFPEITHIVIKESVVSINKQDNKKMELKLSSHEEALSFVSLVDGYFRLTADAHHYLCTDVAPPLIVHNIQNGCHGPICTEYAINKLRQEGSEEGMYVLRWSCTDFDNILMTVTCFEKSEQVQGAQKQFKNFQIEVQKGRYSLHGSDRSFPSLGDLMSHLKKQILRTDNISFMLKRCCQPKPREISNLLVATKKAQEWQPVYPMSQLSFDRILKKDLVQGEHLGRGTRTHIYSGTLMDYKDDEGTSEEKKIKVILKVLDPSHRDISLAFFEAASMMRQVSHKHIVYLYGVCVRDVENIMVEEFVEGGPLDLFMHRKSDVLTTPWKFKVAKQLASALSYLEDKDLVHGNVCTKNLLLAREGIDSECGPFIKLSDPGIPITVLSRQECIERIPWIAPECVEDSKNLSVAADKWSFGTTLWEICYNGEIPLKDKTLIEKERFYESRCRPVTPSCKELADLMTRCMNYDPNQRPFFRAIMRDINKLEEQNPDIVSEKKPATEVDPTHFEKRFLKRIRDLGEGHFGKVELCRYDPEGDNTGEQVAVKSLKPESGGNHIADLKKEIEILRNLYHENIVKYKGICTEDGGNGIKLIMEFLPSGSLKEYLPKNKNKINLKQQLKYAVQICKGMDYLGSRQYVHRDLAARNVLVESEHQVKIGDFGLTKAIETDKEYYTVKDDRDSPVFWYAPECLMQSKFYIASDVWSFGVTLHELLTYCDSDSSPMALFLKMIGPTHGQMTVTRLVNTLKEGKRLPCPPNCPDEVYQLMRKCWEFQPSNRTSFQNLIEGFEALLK
Chain of Tyrosine-protein kinase JAK2 (O60674 whole entry): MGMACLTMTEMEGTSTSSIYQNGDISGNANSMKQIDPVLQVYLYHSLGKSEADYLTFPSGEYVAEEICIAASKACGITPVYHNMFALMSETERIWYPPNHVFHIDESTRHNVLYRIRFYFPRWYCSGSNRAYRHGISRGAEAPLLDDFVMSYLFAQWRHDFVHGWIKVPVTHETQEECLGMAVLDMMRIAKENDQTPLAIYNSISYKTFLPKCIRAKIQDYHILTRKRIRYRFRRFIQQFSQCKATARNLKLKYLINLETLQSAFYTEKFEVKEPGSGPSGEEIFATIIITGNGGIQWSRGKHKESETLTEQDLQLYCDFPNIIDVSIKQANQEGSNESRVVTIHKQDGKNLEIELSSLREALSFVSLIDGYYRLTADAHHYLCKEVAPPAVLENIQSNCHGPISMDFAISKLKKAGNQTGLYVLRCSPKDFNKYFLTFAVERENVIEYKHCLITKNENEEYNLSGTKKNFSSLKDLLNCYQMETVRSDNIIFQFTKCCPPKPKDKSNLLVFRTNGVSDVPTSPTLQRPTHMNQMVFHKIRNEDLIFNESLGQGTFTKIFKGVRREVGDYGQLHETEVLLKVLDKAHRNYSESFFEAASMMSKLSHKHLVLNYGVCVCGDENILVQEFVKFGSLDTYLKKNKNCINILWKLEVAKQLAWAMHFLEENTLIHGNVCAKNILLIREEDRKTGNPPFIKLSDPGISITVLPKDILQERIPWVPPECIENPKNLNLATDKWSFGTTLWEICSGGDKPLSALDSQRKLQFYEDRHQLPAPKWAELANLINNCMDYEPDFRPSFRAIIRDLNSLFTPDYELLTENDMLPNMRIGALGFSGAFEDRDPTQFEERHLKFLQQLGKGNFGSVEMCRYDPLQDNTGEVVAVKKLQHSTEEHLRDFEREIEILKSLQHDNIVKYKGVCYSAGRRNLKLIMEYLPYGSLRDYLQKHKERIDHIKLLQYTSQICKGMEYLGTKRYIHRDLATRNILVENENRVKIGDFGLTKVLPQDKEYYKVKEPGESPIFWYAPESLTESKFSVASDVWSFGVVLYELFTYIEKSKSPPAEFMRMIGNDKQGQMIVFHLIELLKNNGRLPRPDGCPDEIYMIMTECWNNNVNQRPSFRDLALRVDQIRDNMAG
Chain of Non-receptor tyrosine-protein kinase TYK2 (P29597 whole entry): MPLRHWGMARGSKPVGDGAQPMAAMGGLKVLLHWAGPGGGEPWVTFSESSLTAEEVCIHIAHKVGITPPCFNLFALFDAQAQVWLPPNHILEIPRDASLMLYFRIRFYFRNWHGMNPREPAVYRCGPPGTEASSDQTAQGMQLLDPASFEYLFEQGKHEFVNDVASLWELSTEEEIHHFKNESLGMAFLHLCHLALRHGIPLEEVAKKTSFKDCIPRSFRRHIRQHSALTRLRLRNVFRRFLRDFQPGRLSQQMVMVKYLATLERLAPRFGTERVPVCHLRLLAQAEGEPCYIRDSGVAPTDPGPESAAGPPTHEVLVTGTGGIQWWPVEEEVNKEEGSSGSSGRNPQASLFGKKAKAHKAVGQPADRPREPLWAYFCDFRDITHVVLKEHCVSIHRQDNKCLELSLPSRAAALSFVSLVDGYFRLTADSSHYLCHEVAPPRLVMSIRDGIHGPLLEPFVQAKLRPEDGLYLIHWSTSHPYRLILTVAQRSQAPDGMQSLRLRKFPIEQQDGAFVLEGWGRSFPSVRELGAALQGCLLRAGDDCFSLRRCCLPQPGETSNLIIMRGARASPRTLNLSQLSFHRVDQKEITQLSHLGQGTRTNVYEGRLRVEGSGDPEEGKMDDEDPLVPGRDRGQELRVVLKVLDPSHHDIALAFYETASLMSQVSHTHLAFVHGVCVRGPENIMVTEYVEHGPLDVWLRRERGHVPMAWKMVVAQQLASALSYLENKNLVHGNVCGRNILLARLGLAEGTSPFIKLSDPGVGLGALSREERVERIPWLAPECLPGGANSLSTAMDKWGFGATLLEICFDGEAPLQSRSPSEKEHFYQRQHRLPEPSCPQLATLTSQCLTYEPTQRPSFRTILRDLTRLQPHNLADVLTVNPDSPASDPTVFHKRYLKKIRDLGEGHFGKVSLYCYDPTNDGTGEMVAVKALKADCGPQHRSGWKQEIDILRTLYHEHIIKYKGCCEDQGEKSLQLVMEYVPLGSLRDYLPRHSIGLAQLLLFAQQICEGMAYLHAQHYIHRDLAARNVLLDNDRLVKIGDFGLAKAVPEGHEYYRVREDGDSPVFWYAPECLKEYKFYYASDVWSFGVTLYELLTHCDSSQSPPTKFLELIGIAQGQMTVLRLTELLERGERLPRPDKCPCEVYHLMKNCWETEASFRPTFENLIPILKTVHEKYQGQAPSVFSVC

In the case of `O=C(Nc1nc2cccc(C3(F)CCC4(CC3)CN(C(=O)CC(F)(F)F)C4)n2n1)C1CC1` [US11919896, Compound 4-7], the IC50 in assay [1] is 7690 nM; in assay [2], more than 10000 nM; in assay [3] it was 194 nM; in assay [4], 436 nM.

As for `O=C(Nc1nc2cccc(C3(F)CCC4(CC3)CN(C(=O)CC(F)F)C4)n2n1)C1CC1` [US11919896, Compound 4-8], the half-inhibitory concentration (IC50) in assay [1] was 3710 nM; in assay [2], 364 nM; in assay [3], more than 10000 nM; in assay [4] it was 244 nM.

Turning to `O=C(Nc1nc2cccc(C3CCC4(CC3)CN(C(=O)C3(F)CC3)C4)n2n1)[C@H]1CC1(F)F` [US11919896, Compound 8-7], the IC50 in assay [1] is 5460 nM; in assay [2] it was more than 10000 nM; in assay [3], 1030 nM; in assay [4], 63 nM.

For `N#CCC(=O)N1CC2(CCC(c3cccc4nc(NC(=O)[C@H]5CC5(F)F)nn34)CC2)C1` [US11919896, Compound 8-8], the IC50 is 1380 nM in assay [1], more than 10000 nM in assay [2], 109 nM in assay [3] and 60 nM in assay [4].

Take `O=C(Nc1nc2cccc(C3CCC4(CC3)CN(C(=O)C3(F)CC3)C4)n2n1)[C@@H]1CC1(F)F` [US11919896, Compound 9-4]: the IC50 in assay [1] was 982 nM; in assay [2], more than 10000 nM; in assay [3], 1190 nM; in assay [4], 253 nM.

Regarding `N#CCC(=O)N1CC2(CCC(c3cccc4nc(NC(=O)C5CC5(F)F)nn34)CC2)C1` (stereo not drawn) [US11919896, Compound 9-5], the IC50 in assay [1] worked out at 624 nM; in assay [3], 175 nM; in assay [4], 224 nM.

The record behind these values is BindingDB's records for patent US11919896 (Zhuhai United Laboratories Co., 2024).
